Experimental data as given in patent US20230381378A1, “METHODS AND COMPOSITIONS FOR THE TREATMENT OF IMPLANT ASSOCIATED COMPLICATIONS” (The Board of Trustees of the Leland Stanford Junior …, priority 2020, published 2023).

Biological target: T1, Rac2 (Mus musculus, UniProt Q05144)
T1 construct: reduced the expression of immune cell-specific Rac2 in the FBR capsules by about 80%; from tissue; host or cells: FBR capsule tissue around mechanically stimulating implants in C57/BL6 wild-type mice (Jackson labs Stock No: 000664)
Test: Rac inhibition in the mechanically stimulating implant (MSI) mouse model of foreign body response
Format: in vivo
Conditions: C57/BL6 wildtype mice
From the text: Implantation Experiments. Standard silicone implants and MS's were implanted in C57/BL6 mice for either 2 weeks or 1 month. A 2 cm incision was made on the dorsum of the mouse and a subcutaneous pocket was created. Control implants were placed in the subcutaneous pocket and the incision was closed using 6-0 nylon suture or staples. For vibration-enabled implants, the implants were placed into a subcutaneous pocket, similar to the procedure described above and wires were guided through the skin using a modified seldinger technique. 3V batteries with an amplitude of 1.38 G and a frequency of 203 Hz were used to mimic human conditions. MS's were vibrated for 1 hour daily from day 4 (D4) post implantation to day 11 (D11). This time period was chosen based on previous studies, showing that increased mechanical stress during this period effectively induces fibrosis.
Histology and Trichrome staining. At each timepoint, the mice were euthanized, and the implants were resected en bloc with the surrounding scar tissue. The implants were removed and the scar tissue along with the skin was fixed in 4% paraformaldehyde overnight and embedded in paraffin. Scar tissue and implants from humans were collected from patients and processed within an hour. For analysis of the capsule, paraffin sections were stained with trichrome (SigmaAldrich) as described previously. Imaging was performed on a Leica DM5000 B upright microscope. Image analysis software (Image J) was used to quantify collagen staining.
Immunostaining. Immunohistological staining was performed on paraffin sections as described previously. Briefly, heat-based antigen retrieval was followed by blocking with 5% goat serum in PBS. The following primary antibodies were used at a 1:200 dilution (as recommended by the manufacturer) and incubated overnight at 4° C.: anti-a-SMA (Abcam ab5694) or anti-Rac2 (Fischer Scientific, DF6273). Incubation of primary antibody-stained specimens with Alexa Fluor 488 secondary antibody (Thermo Fisher Scientific) was performed at a 1:400 dilution for 1 hour at room temperature. Sections were subsequently mounted using Fluoroshield (F6057, Sigma, Saint Louis, MO) with 4′, 6-diamidino-2-phenylindole (DAPI) to stain cell nuclei. Imaging was performed on a Leica DM5000 B upright microscope. Image analysis was performed using Matlab.
Rac Inhibition Experiments. EHT 1864 2HCl, a potent Rac family GTPase inhibitor, was acquired from Selleckchem (Houston, TX). MS's were implanted in C57/BL6 wildtype mice for 28 days utilizing the modified Seldinger technique described above. Mice were injected with EHT 1864 2HCl (10 mg/kg/day) (n=4) or saline (n=4) from Days 0-26. FBR capsule tissue was explanted on day 28 and processed for histologic analysis.
Statistical Analyses. Results are presented as mean±SEM. Standard data analysis was performed using student's ttests. ANOVA with posthoc tukey's test was used for multiple comparisons. Results were considered significant for *p<0.05.

[1] = 10 mg/kg/day Days 0-26 vs saline, day 28
[2] = local injection 10 mg/kg/day Days 0-26 vs saline, capsule explanted day 28

For `Cl.Cl.O=c1cc(CN2CCOCC2)occ1OCCCCCSc1ccnc2cc(C(F)(F)F)ccc12` [EHT 1864 2HCl], the “capsule thickness (H&E staining)” value [1] was “decreased”, the “collagen deposition (trichrome staining)” value [1] was “decreased” and the “overall FBR” value [1] was “significantly reduced”. The “reduction in the activation of myofibroblasts in MSI capsules (aSMA immunostaining)” value [2] was “about 90%” and the “reduction of expression of immune cell-specific Rac2 in the FBR capsules (immunostaining, percent area positive)” value [2] was “about 80%”.
